Source: ChEMBL document CHEMBL1140931, “Discovery of the first selective inhibitor of excitatory amino acid transporter subtype 1” (J Med Chem, 2009)
Calls of active or inactive are those of the source. The calls are words filed in the database; no cut-off is given here.

Tests used:
[1] = molecular target: T1, Excitatory amino acid transporter 1 (Homo sapiens, UniProt P43003); test: Displacement of [3H]D-Asp from human EAAT1 receptor expressed in HEK293 cells
[2] = molecular target: Excitatory amino acid transporter 2 (Homo sapiens, UniProt P43004); test: Displacement of [3H]D-Asp from human EAAT2 receptor expressed in HEK293 cells
[3] = molecular target: T2, Excitatory amino acid transporter 3 (Homo sapiens, UniProt P43005); test: Displacement of [3H]D-Asp from human EAAT3 receptor expressed in HEK293 cells
T2 sequence (P43005 whole entry): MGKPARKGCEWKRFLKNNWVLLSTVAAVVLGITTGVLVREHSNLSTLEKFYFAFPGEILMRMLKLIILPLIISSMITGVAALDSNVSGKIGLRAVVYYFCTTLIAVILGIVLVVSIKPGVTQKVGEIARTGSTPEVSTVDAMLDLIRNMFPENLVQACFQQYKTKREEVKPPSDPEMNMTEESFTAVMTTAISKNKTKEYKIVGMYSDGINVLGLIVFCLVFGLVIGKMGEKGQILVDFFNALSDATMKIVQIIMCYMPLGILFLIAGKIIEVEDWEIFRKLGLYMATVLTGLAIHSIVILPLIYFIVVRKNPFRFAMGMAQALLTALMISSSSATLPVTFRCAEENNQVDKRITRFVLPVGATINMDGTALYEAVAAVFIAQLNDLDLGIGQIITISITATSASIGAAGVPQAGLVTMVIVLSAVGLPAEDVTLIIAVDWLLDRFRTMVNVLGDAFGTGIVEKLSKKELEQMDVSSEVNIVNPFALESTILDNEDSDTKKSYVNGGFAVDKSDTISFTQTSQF

[4] = molecular target: T1, Excitatory amino acid transporter 1; test: Activity of human EAAT1 expressed in HEK293 cells up to 100 uM; format: cell-based
[5] = molecular target: T3, Excitatory amino acid transporter 3 (Homo sapiens) (UniProt P43005); test: Activity of human EAAT3 expressed in HEK293 cells up to 100 uM; format: cell-based
T3 sequence (whole entry): T2 sequence (P43005 whole entry)

[6] = molecular target: T1, Excitatory amino acid transporter 1; test: Activity at human EAAT1 expressed in HEK293 cells assessed as inhibition of Glu-induced fluorescent response by FLIPR membrane potential blue assay
[7] = molecular target: T4, Excitatory amino acid transporter 1 (Rattus norvegicus, UniProt P24942); test: Activity at rat EAAT1 expressed in TSA201 cells assessed as inhibition of Glu-induced fluorescent response by FLIPR membrane potential blue assay; format: cell-based
T4 sequence (P24942 whole entry): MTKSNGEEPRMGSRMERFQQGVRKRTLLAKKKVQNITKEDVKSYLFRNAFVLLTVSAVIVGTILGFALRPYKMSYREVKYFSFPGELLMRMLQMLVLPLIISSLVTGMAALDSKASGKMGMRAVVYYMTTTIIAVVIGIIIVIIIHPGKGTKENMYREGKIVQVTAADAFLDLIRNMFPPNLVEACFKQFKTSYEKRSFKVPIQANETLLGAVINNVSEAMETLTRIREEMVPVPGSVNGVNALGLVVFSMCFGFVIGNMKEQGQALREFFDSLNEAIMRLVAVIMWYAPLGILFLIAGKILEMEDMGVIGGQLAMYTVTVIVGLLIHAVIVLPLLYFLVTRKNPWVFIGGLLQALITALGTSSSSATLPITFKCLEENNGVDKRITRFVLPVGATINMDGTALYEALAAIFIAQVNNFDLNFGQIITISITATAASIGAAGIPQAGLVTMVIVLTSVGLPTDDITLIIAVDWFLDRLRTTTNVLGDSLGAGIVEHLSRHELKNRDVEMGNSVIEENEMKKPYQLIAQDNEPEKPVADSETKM

Chain of Excitatory amino acid transporter 2 (P43004 whole entry): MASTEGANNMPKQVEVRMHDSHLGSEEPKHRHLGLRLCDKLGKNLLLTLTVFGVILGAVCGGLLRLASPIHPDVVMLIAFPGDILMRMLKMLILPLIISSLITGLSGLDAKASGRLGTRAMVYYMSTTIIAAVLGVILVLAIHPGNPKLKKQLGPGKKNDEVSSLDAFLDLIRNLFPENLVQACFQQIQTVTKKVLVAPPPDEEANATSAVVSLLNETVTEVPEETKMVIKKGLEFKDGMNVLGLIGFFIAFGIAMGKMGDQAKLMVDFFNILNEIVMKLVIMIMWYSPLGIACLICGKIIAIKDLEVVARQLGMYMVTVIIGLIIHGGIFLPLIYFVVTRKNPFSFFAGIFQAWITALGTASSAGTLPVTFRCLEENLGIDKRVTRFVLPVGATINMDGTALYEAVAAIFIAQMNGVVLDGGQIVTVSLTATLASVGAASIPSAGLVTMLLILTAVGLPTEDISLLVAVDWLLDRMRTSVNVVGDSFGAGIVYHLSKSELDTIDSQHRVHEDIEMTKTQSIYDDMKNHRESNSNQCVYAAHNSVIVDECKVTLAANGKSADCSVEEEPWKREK
T1 sequence (P43003 whole entry): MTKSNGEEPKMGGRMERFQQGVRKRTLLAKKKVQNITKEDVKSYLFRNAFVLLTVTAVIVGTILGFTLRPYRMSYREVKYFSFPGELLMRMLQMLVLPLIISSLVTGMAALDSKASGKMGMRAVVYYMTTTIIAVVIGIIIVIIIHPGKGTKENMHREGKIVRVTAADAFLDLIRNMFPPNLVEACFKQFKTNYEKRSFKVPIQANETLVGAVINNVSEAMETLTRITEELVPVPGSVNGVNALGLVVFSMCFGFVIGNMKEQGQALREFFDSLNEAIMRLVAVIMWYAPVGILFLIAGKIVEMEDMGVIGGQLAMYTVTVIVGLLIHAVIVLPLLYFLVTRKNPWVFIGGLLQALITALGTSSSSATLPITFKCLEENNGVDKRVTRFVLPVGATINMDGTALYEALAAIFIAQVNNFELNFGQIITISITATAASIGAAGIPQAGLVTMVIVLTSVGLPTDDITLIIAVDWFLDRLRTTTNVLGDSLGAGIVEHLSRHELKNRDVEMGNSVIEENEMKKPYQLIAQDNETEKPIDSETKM

IC50 [1] [µM]	IC50 [2] [µM]	IC50 [3] [µM]	Activity [4]	Activity [5]	IC50 [6] [µM]	IC50 [7] [µM]	IC50 ([2]; hek293) [µM]	IC50 ([3]; hek293) [µM]	SMILES
~50	> 100	> 100	–	–	–	–	–	–	COc1cccc(C2C(C#N)=C(N)OC3=C2C(=O)CC(c2ccccc2)C3)c1OC (centres undefined)
9.2	> 316	> 316	–	–	–	–	–	–	CC1C(C#N)=C(N)OC2=C1C(=O)CC(c1ccccc1)C2 (centres undefined)
–	> 100	> 100	–	–	–	–	–	–	COc1ccc(C2C(C#N)=C(N)OC3=C2C(=O)CC(c2ccccc2)C3)cc1 (centres undefined)
> 300	> 316	> 316	–	–	–	–	–	–	N#CC1=C(N)OC2=C(C(=O)CCC2)C1c1ccccc1F (centres undefined)
3.2	> 316	> 316	–	–	–	–	–	–	COc1ccc(C2C(C#N)=C(N)OC3=C2C(=O)CC(c2ccccc2Cl)C3)cc1 (centres undefined)
> 300	> 316	> 316	–	–	–	–	–	–	CC1CC(=O)C2=C(C1)OC(N)=C(C#N)C2c1ccc2c(c1)OCO2 (centres undefined)
2.1	> 100	> 100	–	–	–	–	–	–	N#CC1=C(N)OC2=C(C(=O)CC(c3ccccc3)C2)C1c1ccc(-c2ccccc2)cc1 (centres undefined)
100	> 316	> 316	–	–	–	–	–	–	COc1ccc(C2C(C#N)=C(N)OC3=C2C(=O)CC(c2ccco2)C3)cc1OC(=O)N1CCOCC1 (centres undefined)
30	> 316	> 316	–	–	–	–	–	–	N#CC1=C(N)OC2=C(C(=O)CC(c3ccccc3)C2)C1c1cccnc1 (centres undefined)
30	> 100	> 100	–	–	–	–	–	–	N#CC1=C(N)OC2=C(C(=O)CC(c3ccccc3)C2)C1Cc1ccccc1 (centres undefined)
> 300	> 316	> 316	–	–	–	–	–	–	N#CC1=C(N)OC2=C(C1)C(=O)CC(c1ccccc1)C2 (centres undefined)
9.9	> 316	> 316	–	–	–	–	–	–	N#CC1=C(N)OC2=C(C(=O)CC(c3cccs3)C2)C1c1ccc([N+](=O)[O-])cc1 (centres undefined)
7.4	> 100	> 100	–	–	–	–	–	–	N#CC1=C(N)OC2=C(C(=O)CC(c3ccccc3)C2)C1c1cccc2ccccc12 (centres undefined)
0.66	> 316	> 316	inactive	inactive	0.12	0.97	–	–	COc1ccc(C2C(C#N)=C(N)OC3=C2C(=O)CC(c2cccc4ccccc24)C3)cc1 (centres undefined)
3.6	> 100	> 100	–	–	–	–	–	–	N#CC1=C(N)OC2=C(C(=O)CC(c3ccccc3)C2)C1c1ccc2ccccc2c1 (centres undefined)
3.6	> 100	> 100	–	–	–	–	–	–	N#CC1=C(N)OC2=C(C(=O)CC(c3ccccc3)C2)C1c1ccc([N+](=O)[O-])cc1 (centres undefined)
2.7	> 100	> 100	–	–	–	–	–	–	CSc1ccc(C2C(C#N)=C(N)OC3=C2C(=O)CC(c2ccccc2)C3)cc1 (centres undefined)
> 100	> 100	> 100	–	–	–	–	> 100	> 100	N#CC1=C(N)OC2=C(C(=O)CC(c3ccccc3)C2)C1c1c[nH]c2ccccc12 (centres undefined)

SMILES	IC50 [1] [µM]	IC50 [2] [µM]	IC50 [3] [µM]	Activity [4]	Activity [5]	IC50 [6] [µM]	IC50 [7] [µM]	IC50 ([2]; hek293) [µM]	IC50 ([3]; hek293) [µM]
N[C@@H](COS(=O)(=O)O)C(=O)O	100	–	100	–	–	–	–	–	–
N#CC1=C(N)OC2=C(C(=O)CC(c3ccccc3)C2)C1c1cccs1 (centres undefined)	14	> 100	> 100	–	–	–	–	–	–
N#CC1=C(N)OC2=C(C(=O)CC(c3ccccc3)C2)C1c1cc(Br)cs1 (centres undefined)	4.7	> 100	> 100	–	–	–	–	–	–
N#CC1=C(N)OC2=C(C(=O)CC(c3ccco3)C2)C1c1ccccc1 (centres undefined)	7.3	> 316	> 316	–	–	–	–	–	–
COc1cc(C2C(C#N)=C(N)OC3=C2C(=O)CC(c2ccccc2)C3)ccc1OCc1c(F)cccc1Cl (centres undefined)	4.3	> 100	> 100	–	–	–	–	–	–
N#CC1=C(N)OC2=C(C(=O)CC(c3ccccc3)C2)C1c1ccc2c(c1)OCO2 (centres undefined)	4	> 316	> 316	–	–	–	–	–	–
N#CC1=C(N)OC2=C(C(=O)CC(c3ccccc3)C2)C1c1ccccc1F (centres undefined)	4.7	> 100	> 100	–	–	–	–	–	–
